The values that follow come from patent US5714494A, “Xanthines in the 7th position with a benzyl acetic acid moiety” (Bayer Aktiengesellschaft, priority 1995, dated 1998).

The subject of the first assay is ApoB-100-associated lipoproteins. The assay is described as follows: Inhibition of the release of ApoB-100-associated lipoproteins from HepG2 cells (immunoassay for human LDL). The class given is cell-based. The conditions noted are these: HepG2 cells; light absorption 450 nm vs solvent control. As for the experimental part:
The test for detecting inhibition of the release of ApoB-100-associated lipoproteins from liver cells was carried out in vitro using cultured liver cells, preferably using cells of the human line HepG2. These cells are grown under standard conditions in medium for the culture of eucaryotic cells, preferably in RPMI 1640 using 10% foetal calf serum. HepG2 cells synthesize and secrete into the culture supernatant ApoB-100-associated lipoprotein particles which in principle are synthesized in a similar manner to the VLDL and LDL particles which are to be found in the plasma.
These particles can be detected using an immunoassay for human LDL. This immunoassay is carried out using antibodies which have been induced in the rabbit against human LDL under standard conditions. The anti-LDL antibodies (rabbit anti-LDL-Ab) were purified by affinity chromatography on an immunosorbent using human LDL. These purified rabbit anti-LDL Ab are adsorbed on the surface of plastic. Expediently, this adsorption is carried out on the plastic surface of microtitre plates having 96 wells, preferably on MaxiSorp plates. If ApoB-100-associated particles are present in the supernatant of Hep-G2 cells, these can bind to the insolubilized rabbit anti-LDL Ab, and an immune complex is formed which is bound to the plastic surface. Unbound proteins are removed by washing. The immune complex located on the plastic surface is detected using monoclonal antibodies which have been induced against human LDL according to standard conditions and purified. These antibodies were conjugated with the enzyme peroxidase. Peroxidase converts the colourless substrate TMB into a coloured product in the presence of H2 O2. After acidification of the reaction mixture using H2 SO4, the specific light absorption at 450 mn is determined, which is a measure of the amount of ApoB-100-associated particles which have been secreted into the culture supernatant by the HepG2 cells.
The IC50 value indicates at which substance concentration the light absorption is inhibited by 50% in comparison with the control (solvent control without substance).
`Cn1c(=O)c2c(ncn2Cc2ccc(C(C(=O)N[C@@H](CO)c3ccccc3)C3CCCC3)cc2)n(C)c1=O` (single isomer, unassigned) [Example 115] showed a half-maximal inhibitory concentration (IC50) of 240 nM.

`Cn1c(=O)c2c(nc(Cc3ccccc3)n2Cc2ccc(C(C(=O)N[C@@H](CO)c3ccccc3)C3CCCC3)cc2)n(C)c1=O` (single isomer, unassigned) [Example 170] showed an IC50 of 16 nM. Same read-out and setting: in the case of `Cn1c(=O)c2c(nc(-c3cccs3)n2Cc2ccc(C(C(=O)N[C@@H](CO)c3ccccc3)C3CCCC3)cc2)n(C)c1=O` (single isomer, unassigned) [Example 159] it was 25 nM; in that of `Cn1c(=O)c2c(nc(Cc3ccccc3Cl)n2Cc2ccc(C(C(=O)N[C@@H](CO)c3ccccc3)C3CCCC3)cc2)n(C)c1=O` (single isomer, unassigned) [Example 190], 86 nM; in that of `Cn1c(=O)c2c(nc(-c3ccccc3)n2Cc2ccc(C(C(=O)N[C@@H](CO)c3ccccc3)C3CCCC3)cc2)n(C)c1=O` (single isomer, unassigned) [Example 131], 135 nM.

Take `Cn1c(=O)c2c(nc(-c3ccsc3)n2Cc2ccc(C(C(=O)N[C@@H](CO)c3ccccc3)C3CCCC3)cc2)n(C)c1=O` (single isomer, unassigned) [Example 155]: 2 nM corresponded to half-maximal inhibition (IC50). Same read-out and setting: the result for `Cc1cccc(Cc2nc3c(c(=O)n(C)c(=O)n3C)n2Cc2ccc(C(C(=O)N[C@@H](CO)c3ccccc3)C3CCCC3)cc2)c1` (single isomer, unassigned) [Example 181] reads 10 nM.

The molecule `Cc1ccc(Cc2nc3c(c(=O)n(C)c(=O)n3C)n2Cc2ccc(C(C(=O)N[C@@H](CO)c3ccccc3)C3CCCC3)cc2)cc1` (single isomer, unassigned) [Example 183] yielded an IC50 of 10 nM. Still for that read-out and setting: the result for `Cn1c(=O)c2c(nc(Cc3cccc(Cl)c3)n2Cc2ccc(C(C(=O)N[C@@H](CO)c3ccccc3)C3CCCC3)cc2)n(C)c1=O` (single isomer, unassigned) [Example 192] reads 8 nM; that for `Cn1c(=O)c2c(nc(Cc3cccc(Cl)c3)n2Cc2ccc(C(C(=O)N[C@@H](CO)c3ccccc3)C3CCCC3)cc2)n(C)c1=O` (single isomer, unassigned) [Example 193], 62 nM; that for `Cn1c(=O)c2c(nc(Cc3ccccc3Cl)n2Cc2ccc(C(C(=O)N[C@@H](CO)c3ccccc3)C3CCCC3)cc2)n(C)c1=O` (single isomer, unassigned) [Example 189], 31 nM. The same measure, in the same setting: in the case of `Cn1c(=O)c2c(nc(Cc3ccc(F)cc3)n2Cc2ccc(C(C(=O)N[C@@H](CO)c3ccccc3)C3CCCC3)cc2)n(C)c1=O` (single isomer, unassigned) [Example 196] it was 61 nM; in that of `COc1cccc(Cc2nc3c(c(=O)n(C)c(=O)n3C)n2Cc2ccc(C(C(=O)N[C@@H](CO)c3ccccc3)C3CCCC3)cc2)c1` (single isomer, unassigned) [Example 199], 5 nM; in that of `COc1ccc(Cc2nc3c(c(=O)n(C)c(=O)n3C)n2Cc2ccc(C(C(=O)N[C@@H](CO)c3ccccc3)C3CCCC3)cc2)cc1` (single isomer, unassigned) [Example 203], 63 nM. In turn, `COc1cccc(Cc2nc3c(c(=O)n(C)c(=O)n3C)n2Cc2ccc(C(C(=O)N[C@@H](CO)c3ccccc3)C3CCCC3)cc2)c1` (single isomer, unassigned) [Example 200] gave a half-inhibitory concentration (IC50) of 24 nM. The same measure, in the same setting: in the case of `Cn1c(=O)c2c(nc(-c3ccsc3)n2Cc2ccc(C(C(=O)N[C@@H](CO)c3ccccc3)C3CCCC3)cc2)n(C)c1=O` (single isomer, unassigned) [Example 156] it was 25 nM. On to `COc1ccc(Cc2nc3c(c(=O)n(C)c(=O)n3C)n2Cc2ccc(C(C(=O)N[C@@H](CO)c3ccccc3)C3CCCC3)cc2)cc1` (single isomer, unassigned) [Example 202], for which half-maximal inhibition (IC50) was put at 9 nM.

The same assay, now with this note: Homo sapiens, HepG2, HepG2 cells; light absorption 450 nm vs solvent control.
As to `CCc1nc2c(c(=O)n(CC)c(=O)n2CC)n1Cc1ccc(C(C(=O)N[C@@H](CO)c2ccccc2)C2CCCC2)cc1` (stereo partly drawn) [Example 215], the half-maximal inhibitory concentration (IC50) was 3 nM. Same read-out and setting: the result for `CCn1c(=O)c2c(ncn2Cc2ccc(C(C(=O)N[C@@H](CO)c3ccccc3)C3CCCC3)cc2)n(CC)c1=O` (single isomer, unassigned) [Example 212] reads 8 nM. Regarding `Cn1c(=O)c2c(nc(-c3ccc(-c4ccccc4)cc3)n2Cc2ccc(C(C(=O)N[C@@H](CO)c3ccccc3)C3CCCC3)cc2)n(C)c1=O` (stereo partly drawn) [Example 139], it took 90 nM to reach half-maximal inhibition (IC50). As for `Cn1c(=O)c2c(nc(Cc3ccccc3)n2Cc2ccc(C(C(=O)N[C@@H](CO)c3ccccc3)C3CCCCC3)cc2)n(C)c1=O` (stereo partly drawn) [Example 171], the half-inhibitory concentration (IC50) is 2 nM. Still for that read-out and setting: in the case of `Cn1c(=O)c2c(nc(Cc3ccccc3Cl)n2Cc2ccc(C(C(=O)N[C@@H](CO)c3ccccc3)C3CCCC3)cc2)n(C)c1=O` (stereo partly drawn) [Example 188] it was 23 nM. Still for that read-out and setting: the result for `CCn1c(=O)c2c(nc(-c3ccccc3)n2Cc2ccc(C(C(=O)N[C@@H](CO)c3ccccc3)C3CCCC3)cc2)n(CC)c1=O` (stereo partly drawn) [Example 217] reads 11 nM; that for `Cn1c(=O)c2c(nc(Cc3ccccc3)n2Cc2ccc(C(C(=O)N[C@@H](CO)c3ccccc3)C3CCCCC3)cc2)n(C)c1=O` (single isomer, unassigned) [Example 172], 1 nM. On the same count and under the same terms, the result for `CCc1nc2c(c(=O)n(C)c(=O)n2C)n1Cc1ccc(C(C(=O)N[C@@H](CO)c2ccccc2)C2CCCC2)cc1` (stereo partly drawn) [Example 120] reads 28 nM; that for `Cn1c(=O)c2c(nc(Cc3cccc(O)c3)n2Cc2ccc(C(C(=O)N[C@@H](CO)c3ccccc3)C3CCCC3)cc2)n(C)c1=O` (stereo partly drawn) [Example 207], 40 nM.

On to `Cn1c(=O)c2c(nc(Cc3ccc(F)cc3)n2Cc2ccc(C(C(=O)N[C@@H](CO)c3ccccc3)C3CCCC3)cc2)n(C)c1=O` (stereo partly drawn) [Example 194], for which inhibition was half-maximal at 8 nM (IC50).

In turn, `Cn1c(=O)c2c(nc(Cc3ccccc3O)n2Cc2ccc(C(C(=O)N[C@@H](CO)c3ccccc3)C3CCCC3)cc2)n(C)c1=O` (stereo partly drawn) [Example 204] had an IC50 of 16 nM. On the same count and under the same terms, the result for `CCn1c(=O)c2c(nc(C3CC3)n2Cc2ccc(C(C(=O)N[C@@H](CO)c3ccccc3)C3CCCC3)cc2)n(CC)c1=O` (stereo partly drawn) [Example 216] reads 34 nM. `Cn1c(=O)c2c(nc(C3CCCC3)n2Cc2ccc(C(C(=O)N[C@@H](CO)c3ccccc3)C3CCCC3)cc2)n(C)c1=O` (stereo partly drawn) [Example 122] yielded an IC50 of 48 nM. Same read-out and setting: in the case of `Cn1c(=O)c2c(ncn2Cc2ccc(C(C(=O)N[C@@H](CO)c3ccccc3)C3CCCC3)cc2)n(C)c1=O` (stereo partly drawn) [Example 113] it was 58 nM. For the molecule `Cc1cccc(Cc2nc3c(c(=O)n(C)c(=O)n3C)n2Cc2ccc(C(C(=O)N[C@@H](CO)c3ccccc3)C3CCCC3)cc2)c1` (single isomer, unassigned) [Example 180], 5 nM corresponded to half-maximal inhibition (IC50). For the molecule `Cn1c(=O)c2c(nc(C3CC3)n2Cc2ccc(C(C(=O)N[C@@H](CO)c3ccccc3)C3CCCC3)cc2)n(C)c1=O` (stereo partly drawn) [Example 121], the IC50 is 36 nM. On the same count and under the same terms, in the case of `CCc1nc2c(c(=O)n(C)c(=S)n2C)n1Cc1ccc(C(C(=O)N[C@@H](CO)c2ccccc2)C2CCCC2)cc1` (stereo partly drawn) [Example 224] it was 4 nM. The same measure, in the same setting: the result for `Cn1c(=O)c2c(nc(-c3cccs3)n2Cc2ccc(C(C(=O)N[C@@H](CO)c3ccccc3)C3CCCC3)cc2)n(C)c1=S` (stereo partly drawn) [Example 225] reads 4 nM; that for `Cc1ccccc1-c1nc2c(c(=O)n(C)c(=O)n2C)n1Cc1ccc(C(C(=O)N[C@@H](CO)c2ccccc2)C2CCCC2)cc1` (stereo partly drawn) [Example 132], 743 nM; that for `CCn1c(=O)c2c(ncn2Cc2ccc(C(C(=O)N[C@@H](CO)c3ccccc3)C3CCCC3)cc2)n(CC)c1=O` (stereo partly drawn) [Example 211], 9 nM. Same read-out and setting: the result for `Cc1nc2c(c(=O)n(C)c(=S)n2C)n1Cc1ccc(C(C(=O)N[C@@H](CO)c2ccccc2)C2CCCC2)cc1` (stereo partly drawn) [Example 223] reads 4 nM; that for `CCn1c(=O)c2c(nc(-c3ccc(C)cc3)n2Cc2ccc(C(C(=O)N[C@@H](CO)c3ccccc3)C3CCCC3)cc2)n(CC)c1=O` (stereo partly drawn) [Example 218], 8 nM; that for `Cn1c(=O)c2c(nc(-c3cccnc3)n2Cc2ccc(C(C(=O)N[C@@H](CO)c3ccccc3)C3CCCC3)cc2)n(C)c1=O` (stereo partly drawn) [Example 152], 169 nM. `CCn1c(=O)c2c(nc(-c3cccs3)n2Cc2ccc(C(C(=O)N[C@@H](CO)c3ccccc3)C3CCCC3)cc2)n(CC)c1=O` (stereo partly drawn) [Example 219] returned an IC50 of 5 nM. Still for that read-out and setting: in the case of `Cc1ccc(-c2nc3c(c(=O)n(C)c(=O)n3C)n2Cc2ccc(C(C(=O)N[C@@H](CO)c3ccccc3)C3CCCC3)cc2)s1` (stereo partly drawn) [Example 163] it was 131 nM; in that of `Cn1c(=O)c2c(nc(-c3cc(Br)cs3)n2Cc2ccc(C(C(=O)N[C@@H](CO)c3ccccc3)C3CCCC3)cc2)n(C)c1=O` (stereo partly drawn) [Example 164], 12 nM. In the case of `Cn1c(=O)c2c(nc(Cc3ccc(-c4ccccc4)cc3)n2Cc2ccc(C(C(=O)N[C@@H](CO)c3ccccc3)C3CCCC3)cc2)n(C)c1=O` (stereo partly drawn) [Example 185], it took 29 nM to reach half-maximal inhibition (IC50). `Cc1ccc(-c2nc3c(c(=O)n(C)c(=O)n3C)n2Cc2ccc(C(C(=O)N[C@@H](CO)c3ccccc3)C3CCCC3)cc2)c(C)c1` (stereo partly drawn) [Example 138] returned a half-inhibitory concentration (IC50) of 403 nM.

The IC50 is the concentration at which inhibition is half-maximal. Read a high IC50 as lower potency.
